Data published in ChEMBL document CHEMBL1150916, “Isolation of 2-(3'-bromo-4'-hydroxyphenol)ethanamine from the New Zealand ascidian Cnemidocarpa bicornuta” (J Nat Prod, 1998).
Activity calls are given as the source filed them. The rule behind the calls is not given here.

How the values were obtained:
[1] = system: P388; assay: Cytotoxicity against mouse P388 cells; format: functional, cell-based
[2] = system: Bacillus subtilis; assay: Antibacterial activity against Bacillus subtilis; format: functional, organism-based
[3] = system: Escherichia coli; assay: Antibacterial activity against Escherichia coli; format: functional, organism-based
[4] = system: Candida albicans; assay: Antifungal activity against Candida albicans; format: functional, organism-based
[5] = system: Pseudomonas aeruginosa; assay: Antibacterial activity against Pseudomonas aeruginosa; format: functional, organism-based

| Compound | Activity [1] | Activity [2] | Activity [3] | Activity [4] | Activity [5] | IC50 [1] [µM] |
| --- | --- | --- | --- | --- | --- | --- |
| Cn1c(=N)c2nc[nH]c2n(C)c1=O | inactive | inactive | inactive | inactive | inactive |  |
| NCCc1ccc(O)c(Br)c1 |  | inactive | inactive | inactive | inactive | 46 |
